Source: ChEMBL document CHEMBL4765387, “Design of G-protein-coupled bile acid receptor 1 (GPBAR1, TGR5) soft drugs with reduced gallbladder-filling effects” (Eur J Med Chem, 2020)
Values belong to the compound of their own block, whether it stands above or below them.

Legend:
[1] = Stability of the compound in mouse plasma assessed as parent compound remaining at 1 uM measured after 5 mins; format: ADME, cell-free; conditions: read-out: Stabilty
[2] = Cmax in overnight-fasted ICR mouse bile assessed as 5-[3-(4-Cyclopropyl-3,4-dihydro-2H-quinoxaline-1-carbonyl)-pyridin-4-yloxy]-benzofuran-3-carboxylic acid at 50 mg/kg, po measured after 1 hr by LC-MS/MS analysis; format: ADME, organism-based; parameters: route oral, time 1 hrs, dose 50 mg/kg; conditions: in vivo
[3] = Peak drug concentration in overnight-fasted ICR mouse colon at 50 mg/kg, po measured after 4 hr by LC-MS/MS analysis; format: ADME, organism-based; parameters: route oral, time 4 hrs, dose 50 mg/kg
[4] = Peak drug concentration in overnight-fasted ICR mouse ileum at 50 mg/kg, po measured after 2 hr by LC-MS/MS analysis; format: ADME, organism-based; parameters: route oral, dose 50 mg/kg, time 2 hrs
[5] = Cmax in overnight-fasted ICR mouse systemic circulation at 50 mg/kg, po measured after 1 hr by LC-MS/MS analysis; format: ADME, organism-based; parameters: route oral, time 1 hrs, dose 50 mg/kg
[6] = Cmax in overnight-fasted ICR mouse systemic circulation assessed as 5-[3-(4-Cyclopropyl-3,4-dihydro-2H-quinoxaline-1-carbonyl)-pyridin-4-yloxy]-benzofuran-3-carboxylic acid at 50 mg/kg, po measured after 1 hr by LC-MS/MS analysis; format: ADME, organism-based; parameters: route oral, dose 50 mg/kg, time 1 hrs; conditions: in vivo
[7] = Cmax in overnight-fasted ICR mouse gallbladder tissue assessed as 5-[3-(4-Cyclopropyl-3,4-dihydro-2H-quinoxaline-1-carbonyl)-pyridin-4-yloxy]-benzofuran-3-carboxylic acid at 50 mg/kg, po measured after 1 hr by LC-MS/MS analysis; format: ADME, organism-based, Gall bladder; parameters: route oral, time 1 hrs, dose 50 mg/kg; conditions: in vivo

Compound: CCOC(=O)c1coc2cc(Cl)c(Oc3ccncc3C(=O)N3CCN(C4CC4)c4ccccc43)cc12
remaining at 5 min, 1 µM [1]: 92.4%

Compound: CCCOC(=O)c1coc2ccc(Oc3ccncc3C(=O)N3CCN(C4CC4)c4ccccc43)cc12
remaining at 5 min, 1 µM [1]: 12.3%

Compound: CCOCOC(=O)c1coc2ccc(Oc3ccncc3C(=O)N3CCN(C4CC4)c4ccccc43)cc12
Cmax [2]: 80 ng/mL
Cmax [3]: 2700 ng/g
Cmax [4]: 10200 ng/g
Cmax [5]: 3 ng/mL
Cmax [6]: 80 ng/mL
Cmax [7]: 80 ng/mL

The next lines start with the values.

remaining at 5 min, 1 µM [1]: 71%
Compound: COC(=O)c1coc2ccc(Oc3ccncc3C(=O)N3CCN(C4CC4)c4ccccc43)cc12

remaining at 5 min, 1 µM [1]: 38.5%
Compound: CCOC(=O)c1coc2ccc(Oc3ccncc3C(=O)N3CCN(C4CC4)c4ccccc43)cc12
